Consider 1 molecule from paper PMC7176436, “Post-translational regulation of retinal IMPDH1 in vivo to adjust GTP synthesis to illumination conditions” (eLife, 2020).

The target in the experiment is T1, IMPDH1 (murine retinal) (Mus musculus, UniProt P50096).
T1 construct: native, murine retina
As to the kind of experiment: IMPDH1 spicule formation in retinas treated with […] MPA; SDS-PAGE mobility shift after injection of its prodrug MMF. The format is cell-based.

T1 sequence (P50096 whole entry): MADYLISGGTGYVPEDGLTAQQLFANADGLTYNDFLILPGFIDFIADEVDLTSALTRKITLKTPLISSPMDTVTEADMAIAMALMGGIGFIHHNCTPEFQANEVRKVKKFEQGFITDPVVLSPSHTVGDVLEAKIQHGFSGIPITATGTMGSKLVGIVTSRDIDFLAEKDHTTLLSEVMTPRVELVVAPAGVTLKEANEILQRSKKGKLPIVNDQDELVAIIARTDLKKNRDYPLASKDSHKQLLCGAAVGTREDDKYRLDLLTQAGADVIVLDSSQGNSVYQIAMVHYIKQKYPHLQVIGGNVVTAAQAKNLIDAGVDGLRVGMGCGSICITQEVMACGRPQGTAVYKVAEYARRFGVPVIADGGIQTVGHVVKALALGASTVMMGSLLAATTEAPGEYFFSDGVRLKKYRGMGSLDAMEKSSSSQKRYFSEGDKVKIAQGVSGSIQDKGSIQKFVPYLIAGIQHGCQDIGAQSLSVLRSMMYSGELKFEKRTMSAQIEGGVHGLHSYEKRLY

As to `COc1c(C)c2c(c(O)c1C/C=C(\C)CCC(=O)O)C(=O)OC2` [mycophenolic acid], the “IMPDH1 spicule formation in retinas treated with 10 μM MPA; SDS-PAGE mobility sh” value is “MPA inhibition of IMPDH1 resulted in the formation and accumulation of IMPDH1 spicules with time”.
